Data as given in publication PMC9555310, “Novel inhibitors and activity-based probes targeting serine proteases” (Frontiers in Chemistry, 2022).

Molecular target: T1, plasmin (Homo sapiens, UniProt P00747)
T1 construct: purchased Sigma-Aldrich (supplement); R&D Systems; host or cells: human plasma
Experiment: Irreversible inhibition kinetics of plasmin (fluorogenic substrate progress curves)
Assay type: biochemical
Details: PBS pH 7.4, 37°C, mean ± SD (n=2); for Ki: Boc-Val-Leu-Lys-NHMec 50 μM; for k 3: first-order rate constant; for k 3 / K i: second-order rate constant of inactivation
Experimental: A range of inhibitor concentrations were prepared from a 10 mM stock solution of the test compounds (NAP533, NAP559, NAP800, NAP830, NAP849, and NAP962) in N, N-dimethylformamide (DMF). Recombinant protease activities were assayed using the cognate fluorogenic substrates as follows: trypsin (Z-Gly-Gly-Arg-NHMec), thrombin (Boc-Val-Pro-Arg-NHMec), plasmin (Boc-Val-Leu-Lys-NHMec), human neutrophil elastase (MeO-Succinyl-Ala-Ala-Pro-Val-NHMec), and chymotrypsin (Succinyl-Ala-Ala-Pro-Phe-NHMec). Each substrate was used at a final concentration of 50 μM, in the appropriate buffer for each protease. All inhibition assays were performed in microtiter plates maintained at 37°C in a final volume of 100 μL. The reaction was initiated by the addition of each protease (approx. 0.01 μg/well) and the rate of substrate hydrolysis was recorded continuously at 37°C, over a 60 min period, by measuring the rate of increase in fluorescence (at λex 360 nm, λem 480 nm) using a FLUOstar Optima microplate reader (BMG Labtech).
The resultant inhibition progress curves obtained for each inhibitor were analyzed by the kinetic models developed by [Tian and Tsou (1982)] and [Walker and Elmore (1984)], for irreversible inhibitors, with curve fitting being achieved using GraFit (Erithacus Software), as described previously ([Ferguson et al., 2016]).
FIGURE 4 Progress curves for (A), chymotrypsin-catalysed hydrolysis of Succinyl-Ala-Ala-Pro-Phe-NHMec, in the presence of varying concentrations of NAP849. (B), NE-catalysed hydrolysis of MeO-succinyl-Ala-Ala-Pro-Val-NHMec, in the presence of varying concentrations of NAP800. (C) Trypsin-catalysed of Z-Gly-Gly-Arg-NHMec, in the presence of NAP830. (D) Plasmin-catalysed hydrolysis of Boc-Val-Leu-Lys-NHMec, in the presence of varying concentrations of NAP962. Assays were carried out in PBS, pH 7.4, at 37°C, in the presence of a range of inhibitor concentrations (0.25–50 μM) and a fixed concentration (50 μM) of the appropriate substrate for each protease.
The “product progress” curves for substrate hydrolysis in the presence of an inhibitor (Figure 4) are indicative of the action of irreversible inhibitors operating through the kinetic scheme illustrated in Figure 6. In this scheme, the formation of the reversible enzyme–inhibitor complex (EI) is zcharacterized by the inhibitor constant K i. This is converted into the covalent/irreversible complex (E-I) characterized by a first-order rate constant k 3. The overall second-order rate constant for the inactivation of E by I is given by the ratio k 3/K i ([Walker and Elmore, 1984]; [Tsou, 1988]).
Fluorogenic enzyme assays were carried out on a FLUOstar OPTIMA spectro-fluorimeter (BMG Labtech) with analysis performed on MARS Data Analysis Software (BMG Labtech). Black 96-well microtitre plates were supplied by Thermo Scientific. Trypsin from porcine pancreas, plasmin from human plasma and chymotrypsin from bovine pancreas were obtained from Sigma-Aldrich. Thrombin and Cathepsin B were supplied by R and D Systems. Human Neutrophil Elastase was supplied by Calbiochem. Fluorogenic substrates Z-Gly-Gly-Arg-NHMec, Succinyl-Ala-Ala-Pro-Phe-NHMec and MeO-Succinyl-Ala-Ala-Pro-Val-NHMec were supplied by Sigma-Aldrich. Boc-Val-Pro-Arg-NHMec was obtained from R and D Systems and Boc-Val-Leu-Lys-NHMec was supplied by PeptaNova. Phosphate Buffered Saline tablets were acquired from Sigma- Aldrich.
Protease inactivation by each of the compounds under study was evaluated using a fluorogenic enzyme assays. Protease-substrate combinations used as detailed in Section 2. Inhibitors were made up as 10 mM stock solutions in either DMF or DMSO, then diluted with PBS (pH 7.4) to give appropriate working concentrations. A final volume of 100 μL was used per well. Substrate (50 μM final concentration) was added to a black 96-well microtitre plate (Thermo Scientific), in duplicate, followed by addition of inhibitor, in such a manner to give the required final concentration. […]

T1 sequence (P00747 581-810 limits assumed): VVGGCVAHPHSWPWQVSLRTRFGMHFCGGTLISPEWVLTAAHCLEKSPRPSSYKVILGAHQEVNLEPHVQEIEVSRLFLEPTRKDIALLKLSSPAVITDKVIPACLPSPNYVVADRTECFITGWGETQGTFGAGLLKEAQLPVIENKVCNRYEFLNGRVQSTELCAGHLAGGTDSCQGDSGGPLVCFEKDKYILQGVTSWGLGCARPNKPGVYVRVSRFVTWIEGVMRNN
T1 sequence (P00747 97-580 partner limits assumed): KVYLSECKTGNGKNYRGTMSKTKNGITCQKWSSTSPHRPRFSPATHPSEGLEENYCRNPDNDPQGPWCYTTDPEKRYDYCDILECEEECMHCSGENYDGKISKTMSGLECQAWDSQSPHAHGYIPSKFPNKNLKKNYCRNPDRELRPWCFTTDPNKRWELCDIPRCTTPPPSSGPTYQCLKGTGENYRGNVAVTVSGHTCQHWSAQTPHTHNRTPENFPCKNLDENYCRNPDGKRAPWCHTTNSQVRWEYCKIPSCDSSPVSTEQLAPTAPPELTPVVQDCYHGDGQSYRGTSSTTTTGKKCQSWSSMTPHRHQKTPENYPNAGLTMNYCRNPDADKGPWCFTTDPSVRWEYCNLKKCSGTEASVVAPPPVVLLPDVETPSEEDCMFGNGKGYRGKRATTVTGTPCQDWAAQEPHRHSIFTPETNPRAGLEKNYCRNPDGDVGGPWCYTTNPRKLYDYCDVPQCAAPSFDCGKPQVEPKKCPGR

| SMILES | Ki | k 3 | k 3 / K i |
| --- | --- | --- | --- |
| NCCCCN(CC(=O)NCC(=O)NCC(=O)NCCCOCCOCCOCCCNC(=O)CCCCC1SCC2NC(=O)NC21)C(=O)ON1C(=O)CCC1=O (stereo not drawn) [NAP830, Succinimidoyl-CO-NLys-Gly-Gly-PEG-Biotin] | 7.2 µM | 0.4 (± 0.05) min^−1 | 6.2 (± 0.9) × 10^4 M^−1 min^−1 |
| CC(C)N(CC(=O)NCCCOCCOCCOCCCNC(=O)CCCCC1SCC2NC(=O)NC21)C(=O)CN(Cc1ccccc1)C(=O)CN(CCCCN)C(=O)ON1C(=O)CCC1=O (stereo not drawn) [NAP962, Succinimidoyl-CO-NLys-NPhe-NVal-PEG-Biotin] | 4.2 µM | 0.6 (± 0.1) min^−1 | 1.4 (± 0.3) × 10^5 M^−1 min^−1 |
